Format in all cases: cell-based
One experiment concerns A431 (EGFR-WT). Put plainly: Cell proliferation study (CellTiter-Glo, 72 hrs), A431. The note with it: Homo sapiens, A-431, A431 cells, CTG, * = average of multiple measurements. Here is the method: (§1) (I) Reagents and Materials
(§2) • Fetal bovine serum FBS (GBICO, Cat #10099-141); • CellTiter-Glo® luminescent cell viability assay kit (Promega, Cat #G7572); • Black transparent flat-bottom 96-well plate (Corning®, Cat #3603). (II) Instruments • SpectraMax multi-label microplate reader MD, 2104-0010A; • Carbon dioxide incubator, Thermo Scientific 3100 series; • Biological safety cabinet, Thermo Scientific, 1300 series model A2; • Inverted microscope, Olympus, CKX41SF; • Siemens refrigerator KK25E76T1. (III) Cell Lines and Culture Conditions
(§3) (IV) Experimental Procedures 1. Cell Culture and Inoculation: • (1) Cells in the logarithmic growth phase were harvested and counted using a […]. The cell viability was determined by the trypan blue dye exclusion method to ensure cell viability above 90%. • (2) The cell concentration was adjusted to reach a desired final density; 90 μL of cell suspension was added to a 96-well plate. • (3) The cells were incubated overnight in the 96-well plate at 37° C., 5% CO2 and with 95% humidity. 2. T0 Benchmark Data: • (1) 10 μL of PBS was added to each well of the TO plate containing the cells. • (2) The CTG reagent was thawed and the cell plate was equilibrated to room temperature for 30 min. • (3) An equal volume of CTG solution was added to each well. • (4) The cells were lysed by shaking on an orbital shaker for 5 min. • (5) The cell plate was left to stand at room temperature for 20 min to stabilize the fluorescence signal. • (6) The fluorescence signal values of TO were read. 3. Dilution and Addition of Compounds • (1) According to the compound information table, a corresponding volume of DMSO was added to the corresponding compound powder to prepare a 10 mM stock solution. • (2) A 1000-fold, 3.16-fold-diluted compound solution was prepared. • (3) The 1000× diluted compound solution was diluted 100-fold with PBS to prepare a 10-fold compound solution with a maximum concentration of 10 μM, including 9 concentrations, with 3.16-fold dilution, and 10 μL of the medicament solution was added to each well of the 96-well plate to seed the cells. Triplicate wells were set for each compound concentration, with a final concentration of DMSO being 0.1%. • (4) The cells were placed in the 96-well plate containing the medicament at 37° C., 5% CO2 and with 95% humidity, and cultured for 72 hrs before CTG analysis. 4. Fluorescence Signal Reading • (1) The CTG reagent was thawed and the cell plate was equilibrated to room temperature for 30 min. • (2) An equal volume of CTG solution was added to each well. • (3) The cells were lysed by shaking on an orbital shaker for 5 min. • (4) The cell plate was left to stand at room temperature for 20 min to stabilize the fluorescence signal. • (5) The fluorescence values were read. 5. Data Processing
(§4) Data were analyzed using GraphPad Prism 7.0 software and fitted data were regressed using non-linear S-curves to obtain dose-response curves from which IC50 values (in nM) were calculated.
(In general: Cellular ATP, detected with luciferase, serves as a proxy for viable cell number.)

The target in experiment [1] is Ba/F3 EGFR-D770-N771ins_SVD (Homo sapiens, UniProt P00533, DUP768-770, cells depend on it). The experiment can be described thus: Cell proliferation study (CellTiter-Glo, 72 hrs), Ba/F3 EGFR-D770-N771ins_SVD. The note with it: CTG, * = average of multiple measurements, read-out: Ba/F3 EGFR-D770-N771ins_SVD IC50. In outline: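 Cells were seeded overnight, then exposed for 72 hrs at 37 °C, 5% CO2 to 9 concentrations in 3.16-fold steps, 0.1% DMSO final, triplicate wells. Viability was read by CellTiter-Glo luminescence, with a T0 plate read at dosing. IC50 came from nonlinear sigmoidal dose-response fits.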

The target of experiment [2] is Ba/F3 EGFR-V769_D770insASV (Homo sapiens, UniProt P00533, DUP767-769, cells depend on it). The experiment can be described thus: Cell proliferation study (CellTiter-Glo, 72 hrs), Ba/F3 EGFR-V769_D770insASV. The conditions noted are these: CTG, * = average of multiple measurements, read-out: Ba/F3 EGFR-V769_D770insASV IC50. Here is the method: as §1, §2, §3, §4

The structures appear in SMILES notation.

For orientation: IC50 means the concentration needed to halve the response being measured.

Sequence of Ba/F3 EGFR-V769_D770insASV (P00533 with tags, fused parts or gaps DUP767-769): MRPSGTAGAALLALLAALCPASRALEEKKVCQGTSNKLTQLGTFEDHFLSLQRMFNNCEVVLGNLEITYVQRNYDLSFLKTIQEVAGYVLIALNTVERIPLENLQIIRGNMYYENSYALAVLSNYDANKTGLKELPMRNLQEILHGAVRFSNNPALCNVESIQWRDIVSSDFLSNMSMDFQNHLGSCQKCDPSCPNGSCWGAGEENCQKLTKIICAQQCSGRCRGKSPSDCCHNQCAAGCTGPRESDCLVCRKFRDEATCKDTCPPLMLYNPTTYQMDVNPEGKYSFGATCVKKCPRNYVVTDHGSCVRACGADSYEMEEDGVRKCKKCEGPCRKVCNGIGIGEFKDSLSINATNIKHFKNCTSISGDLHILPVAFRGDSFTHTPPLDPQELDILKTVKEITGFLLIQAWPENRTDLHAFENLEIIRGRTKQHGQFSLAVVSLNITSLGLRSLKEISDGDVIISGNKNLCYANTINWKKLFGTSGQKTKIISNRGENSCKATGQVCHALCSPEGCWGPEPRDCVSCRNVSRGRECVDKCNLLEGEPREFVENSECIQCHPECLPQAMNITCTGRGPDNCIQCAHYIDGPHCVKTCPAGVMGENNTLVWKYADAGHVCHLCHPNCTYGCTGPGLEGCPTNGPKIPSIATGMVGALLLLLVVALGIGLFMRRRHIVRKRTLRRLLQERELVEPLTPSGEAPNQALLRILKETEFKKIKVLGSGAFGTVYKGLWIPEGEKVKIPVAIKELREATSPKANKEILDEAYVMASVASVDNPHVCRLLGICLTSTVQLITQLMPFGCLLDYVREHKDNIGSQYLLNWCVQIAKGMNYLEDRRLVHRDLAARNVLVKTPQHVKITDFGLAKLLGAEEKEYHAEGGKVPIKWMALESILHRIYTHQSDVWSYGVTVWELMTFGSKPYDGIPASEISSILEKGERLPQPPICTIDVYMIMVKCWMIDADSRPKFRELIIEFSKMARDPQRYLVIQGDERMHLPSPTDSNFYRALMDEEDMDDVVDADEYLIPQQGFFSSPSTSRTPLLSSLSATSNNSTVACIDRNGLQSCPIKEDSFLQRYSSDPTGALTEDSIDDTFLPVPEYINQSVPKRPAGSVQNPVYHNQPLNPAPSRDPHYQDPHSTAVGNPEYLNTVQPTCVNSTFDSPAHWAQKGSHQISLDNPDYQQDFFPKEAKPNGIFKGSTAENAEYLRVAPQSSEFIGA
Sequence of Ba/F3 EGFR-D770-N771ins_SVD (P00533 with tags, fused parts or gaps DUP768-770): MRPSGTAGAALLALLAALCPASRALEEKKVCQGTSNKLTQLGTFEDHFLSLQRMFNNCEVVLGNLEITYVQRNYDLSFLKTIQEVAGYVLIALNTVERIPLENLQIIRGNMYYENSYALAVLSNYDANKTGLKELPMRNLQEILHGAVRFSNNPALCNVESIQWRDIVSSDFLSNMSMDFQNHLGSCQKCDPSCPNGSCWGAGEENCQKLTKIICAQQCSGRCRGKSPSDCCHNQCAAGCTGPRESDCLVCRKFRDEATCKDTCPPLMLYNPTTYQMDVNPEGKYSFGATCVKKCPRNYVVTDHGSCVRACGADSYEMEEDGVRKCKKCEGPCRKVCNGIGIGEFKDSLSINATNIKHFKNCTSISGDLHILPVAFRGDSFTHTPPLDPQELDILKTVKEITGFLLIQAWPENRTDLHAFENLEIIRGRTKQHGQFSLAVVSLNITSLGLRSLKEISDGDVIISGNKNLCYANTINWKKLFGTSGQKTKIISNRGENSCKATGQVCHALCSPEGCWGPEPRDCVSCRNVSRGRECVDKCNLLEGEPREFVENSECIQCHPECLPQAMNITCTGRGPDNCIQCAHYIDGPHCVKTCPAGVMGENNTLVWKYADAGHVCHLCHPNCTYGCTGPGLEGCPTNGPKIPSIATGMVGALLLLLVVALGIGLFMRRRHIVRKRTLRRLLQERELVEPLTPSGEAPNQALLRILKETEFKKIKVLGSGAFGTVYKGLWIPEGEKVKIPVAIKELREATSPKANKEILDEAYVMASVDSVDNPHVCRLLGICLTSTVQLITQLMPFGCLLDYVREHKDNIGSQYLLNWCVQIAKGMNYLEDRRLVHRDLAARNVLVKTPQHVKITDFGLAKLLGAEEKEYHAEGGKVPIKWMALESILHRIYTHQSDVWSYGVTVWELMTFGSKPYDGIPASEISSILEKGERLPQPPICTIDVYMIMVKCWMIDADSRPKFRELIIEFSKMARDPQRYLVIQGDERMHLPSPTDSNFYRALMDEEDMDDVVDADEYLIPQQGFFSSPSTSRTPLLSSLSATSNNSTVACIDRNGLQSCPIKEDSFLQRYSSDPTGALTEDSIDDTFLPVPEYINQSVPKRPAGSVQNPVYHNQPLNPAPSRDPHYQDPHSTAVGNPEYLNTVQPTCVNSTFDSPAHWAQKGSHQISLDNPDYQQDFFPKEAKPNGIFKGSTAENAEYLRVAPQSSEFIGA

In the experiment with A431 (EGFR-WT), `C=CC(=O)Nc1cc(Nc2ncc(C(=O)OC(C)C)c(N3CC(C)(C)c4nc(C)ccc43)n2)c(OC)cc1N(C)CCN(C)C` [Example 1, isopropyl 2-((5-acrylamido-4-((2-(dimethylamino)ethyl)(methyl)amino)-2-methoxyphenyl)amino)-4-(3,3,5-trimethyl-2,3-dihydro-1H-pyrrolo[3,2-b]pyridin-1-yl)pyrimidine-5-carboxylate] registered an IC50 of 105 nM. Further, the GI50 in experiment [1] was 7 nM; in experiment [2], 10.4 nM.

Consider `C=CC(=O)Nc1cc(Nc2ncc(C(=O)OC(C)C)c(N3CC(C)(C)c4nc(C)ccc43)n2)c(OC)cc1N1CCC[C@@H]1CN(C)C` [Example 83, isopropyl (R)-2-((5-acrylamido-4-(2-((dimethyl-amino)methyl)pyrrolidin-1-yl)-2-meth-oxyphenyl)amino)-4-(3,3,5-trimethyl-2,3-dihydro-1H-pyrrolo[3,2-b]pyridin-1-yl)pyrimidine-5-carboxylate], for which the IC50 in the experiment with A431 (EGFR-WT) stood at 57 nM. The GI50 is 10.9 nM in experiment [1] and 13.6 nM in experiment [2].

The molecule `[2H]C1([2H])N(c2nc(Nc3cc(NC(=O)C=C)c(N4C[C@@H](F)C[C@@H]4CN(C)C)cc3OC)ncc2C(=O)OC(C)C)c2ccc(C)nc2C1(C)C` [Example 82, isopropyl 2-((5-acrylamido-4-((2R,4S)-2-((di-methylamino)methyl)-4-fluoro-pyrrolidin-1-yl)-2-methoxy-phenyl)amino)-4-(3,3,5-trimethyl-2,3-dihydro-1H-pyrrolo[3,2-b]pyridin-1-yl-2,2-d2)pyrimidine-5-carboxylate] displayed an IC50 in the experiment on A431 (EGFR-WT) of 76 nM. Further, the GI50 in experiment [1] came out at 11.2 nM; in experiment [2], 12.9 nM.

In the experiment on A431 (EGFR-WT), `C=CC(=O)Nc1cc(Nc2ncc(C(=O)OC(C)C)c(N3CC(C)(C)c4nc(C#CC)ccc43)n2)c(OC)cc1N1CCC[C@@H]1CN(C)C` [Example 79, isopropyl (R)-2-((5-acrylamido-4-(2-((dimethyl-amino)methyl)pyrrolidin-1-yl)-2-meth-oxyphenyl)amino)-4-(3,3-dimethyl-5-(prop-1-yn-1-yl)-2,3-dihydro-1H-pyrrolo[3,2-b]pyridin-1-yl)pyrimidine-5-carboxylate] displayed an IC50 of 252 nM. Besides, the GI50 in experiment [1] worked out at 20.2 nM; in experiment [2], 58.2 nM.

Take `C=CC(=O)Nc1cc(Nc2ncc(C(=O)OC(C)C)c(N3CC(C)(C)c4nc(C)ccc43)n2)c(OC)cc1N(C)CCNC` [Example 15, isopropyl 2-((5-acrylamido-2-methoxy-4-(methyl (2-(methylamino)ethyl)amino)phenyl)amino)-4-(3,3,5-trimethyl-2,3-dihydro-1H-pyrrolo[3,2-b]pyridin-1-yl)pyrimidine-5-carboxylate]: in the experiment on A431 (EGFR-WT), the IC50 was 879 nM. Also, the figures for the GI50 in experiment [1] and in experiment [2] were 35 nM and 49.2 nM, respectively.

`C=CC(=O)Nc1cc(Nc2ncc(C(=O)OC(C)C)c(N3CC(C)(C)c4nc(C)ccc43)n2)c(OC)nc1N(C)C[C@@H]1CCCN1C` [Example 46, isopropyl (S)-2-((5-acrylamido-2-methoxy-6-(methyl((1-methylpyrrolidin-2-yl)methyl)amino)pyridin-3-yl)amino)-4-(3,3,5-trimethyl-2,3-dihydro-1H-pyrrolo[3,2-b]pyridin-1-yl)pyrimidine-5-carboxylate] yielded an IC50 with A431 (EGFR-WT) of 270 nM. In addition, the GI50 in experiment [1] was determined as 20.5 nM; in experiment [2] it was 33.5 nM.

`C=CC(=O)Nc1cc(Nc2ncc(C(=O)OC(C)C)c(N3CC(C)(C)c4nc(C#CC)ccc43)n2)c(OC)cc1N1CC(N(C)C)C1` [Example 76, isopropyl 2-((5-acrylamido-4-(3-(dimethylami-no)azetidin-1-yl)-2-methoxyphenyl)ami-no)-4-(3,3-dimethyl-5-(prop-1-yn-1-yl)-2,3-dihydro-1H-pyrrolo[3,2-b]pyridin-1-yl)pyrimidine-5-carboxylate] came in with an IC50 with A431 (EGFR-WT) of 1260 nM. In addition, the figures for the GI50 in experiment [1] and in experiment [2] were 30.9 nM and 93.9 nM, respectively.

In the experiment with A431 (EGFR-WT), `C=CC(=O)Nc1cc(Nc2ncc(C(=O)OC(C)C)c(N3CC4(CC4)c4nc(C)ccc43)n2)c(OC)cc1N1CC[C@@H](N(C)C)C1` [Example 26, isopropyl (R)-2-((5-acrylamido-4-(3-(dimethyl-amino)pyrrolidin-1-yl)-2-methoxy-phenyl)amino)-4-(5′-methyl-spiro(cyclopropane-1,3′-pyrrolo[3,2-b]pyridin)-1′(2′H)-yl)pyrimidine-5-carboxylate] registered an IC50 of 363 nM. Also, the GI50 in experiment [1] came out at 29.7 nM; in experiment [2] it was 52.8 nM.

Take `C=CC(=O)Nc1cc(Nc2ncc(C(=O)OC(C)C)c(N3CC4(CC4)c4ncccc43)n2)c(OC)cc1N1CCC[C@@H]1CN(C)C` [Example 86, isopropyl (R)-2-((5-acrylamido-4-(2-((dimethyl-amino)methyl)pyrrolidin-1-yl)-2-meth-oxyphenyl)amino)-4-(spiro(cyclopro-pane-1,3′-pyrrolo[3,2-b]pyridin)-1′(2′H)-yl)pyrimidine-5-carboxylate]: the IC50 with A431 (EGFR-WT) worked out at 14.1 nM. In addition, the GI50 in experiment [1] came out at 9.8 nM; in experiment [2], 8 nM.

For `C=CC(=O)Nc1cc(Nc2ncc(C(=O)OC(C)C)c(N3CC(C)(C)c4nc(C=C)ccc43)n2)c(OC)cc1N(C)CCN(C)C` [Example 20, isopropyl 2-((5-acrylamido-4-((2-(dimethylami-no)ethyl)(methyl)amino)-2-methoxy-phenyl)amino)-4-(3,3-dimethyl-5-vinyl-2,3-dihydro-1H-pyrrolo[3,2-b]pyridin-1-yl)pyrimidine-5-carboxylate], the IC50 in the experiment with A431 (EGFR-WT) amounted to 746 nM. Also, the GI50 in experiment [1] stood at 34.3 nM; in experiment [2] it was 66.6 nM.

The molecule `C=CC(=O)Nc1cc(Nc2ncc(C(=O)OC(C)C)c(N3CC4(CC4)c4ncccc43)n2)c(OC)cc1N(C)CCN(C)C` [Example 21, isopropyl 2-((5-acrylamido-4-((2-(dimethylami-no)ethyl)(methyl)amino)-2-methoxy-phenyl)amino)-4-(spiro(cyclopropane-1,3′-pyrrolo[3,2-b]pyridin)-1′(2′H)-yl)pyrimidine-5-carboxylate] came in with an IC50 in the experiment with A431 (EGFR-WT) of 404 nM. For the same molecule, the GI50 in experiment [1] was 24.6 nM; in experiment [2], 56.8 nM.

As for `C=CC(=O)Nc1cc(Nc2ncc(C(=O)OC(C)C)c(N3CC4(CC4)c4nc(C)ccc43)n2)c(OC)cc1N(C)CCNC` [Example 25, isopropyl 2-((5-acrylamido-2-methoxy-4-(methyl(2-(methylamino)ethyl)ami-no)phenyl)amino)-4-(5′-methyl-spiro(cyclopropane-1,3′-pyrrolo[3,2-b]pyridin)-1′(2′H)-yl)pyrimidine-5-carboxylate], in the experiment with A431 (EGFR-WT), the IC50 was 222 nM. Moreover, the GI50 in experiment [1] was determined as 34.2 nM; in experiment [2], 53.8 nM.

Consider `C=CC(=O)Nc1cc(Nc2ncc(C(=O)OC(C)C)c(N3CC(C)(C)c4nc(C)ccc43)n2)c(OC)cc1N1CC[C@@H](N(C)C)C1` [Example 12, isopropyl (R)-2-((5-acrylamido-4-(3-(dimethyl-amino)pyrrolidin-1-yl)-2-methoxy-phenyl)amino)-4-(3,3,5-trimethyl-2,3-dihydro-1H-pyrrolo[3,2-b]pyridin-1-yl)pyrimidine-5-carboxylate], for which the half-maximal inhibitory concentration (IC50) in the experiment with A431 (EGFR-WT) was 599 nM. The GI50 in experiment [1] stood at 18.5 nM; in experiment [2], 36.9 nM.

The record behind these values is patent publication US12692264B2, “Pyrimidine or pyridine derivative, preparation method therefor, and application thereof in pharmacy” (ABBISKO THERAPEUTICS CO., LTD., priority 2021, dated 2026).
